Experimental data published in patent US20220256889A1, “PEPTIDES THAT MODULATE CALCIUM-SENSING RECEPTOR ACTIVITY FOR MODULATING KOKUMI TASTE AND PET FOOD PRODUCTS CONTAINING THE SAME” (MARS, INCORPORATED, priority 2019, published 2022).
Where a SMILES comes first, the peptide text is derived from it. Where no end group is shown, it is not given here. [ ]: non-standard residue; d: D form. pY = N[CH](Cc1ccc(OP(=O)(O)O)cc1)C(=O)O; pT = C[CH](OP(=O)(O)O)[CH](N)C(=O)O; pS = N[CH](COP(=O)(O)O)C(=O)O

T1: feline calcium-sensing receptor (CaSR) (feline (cat))
T1 chain: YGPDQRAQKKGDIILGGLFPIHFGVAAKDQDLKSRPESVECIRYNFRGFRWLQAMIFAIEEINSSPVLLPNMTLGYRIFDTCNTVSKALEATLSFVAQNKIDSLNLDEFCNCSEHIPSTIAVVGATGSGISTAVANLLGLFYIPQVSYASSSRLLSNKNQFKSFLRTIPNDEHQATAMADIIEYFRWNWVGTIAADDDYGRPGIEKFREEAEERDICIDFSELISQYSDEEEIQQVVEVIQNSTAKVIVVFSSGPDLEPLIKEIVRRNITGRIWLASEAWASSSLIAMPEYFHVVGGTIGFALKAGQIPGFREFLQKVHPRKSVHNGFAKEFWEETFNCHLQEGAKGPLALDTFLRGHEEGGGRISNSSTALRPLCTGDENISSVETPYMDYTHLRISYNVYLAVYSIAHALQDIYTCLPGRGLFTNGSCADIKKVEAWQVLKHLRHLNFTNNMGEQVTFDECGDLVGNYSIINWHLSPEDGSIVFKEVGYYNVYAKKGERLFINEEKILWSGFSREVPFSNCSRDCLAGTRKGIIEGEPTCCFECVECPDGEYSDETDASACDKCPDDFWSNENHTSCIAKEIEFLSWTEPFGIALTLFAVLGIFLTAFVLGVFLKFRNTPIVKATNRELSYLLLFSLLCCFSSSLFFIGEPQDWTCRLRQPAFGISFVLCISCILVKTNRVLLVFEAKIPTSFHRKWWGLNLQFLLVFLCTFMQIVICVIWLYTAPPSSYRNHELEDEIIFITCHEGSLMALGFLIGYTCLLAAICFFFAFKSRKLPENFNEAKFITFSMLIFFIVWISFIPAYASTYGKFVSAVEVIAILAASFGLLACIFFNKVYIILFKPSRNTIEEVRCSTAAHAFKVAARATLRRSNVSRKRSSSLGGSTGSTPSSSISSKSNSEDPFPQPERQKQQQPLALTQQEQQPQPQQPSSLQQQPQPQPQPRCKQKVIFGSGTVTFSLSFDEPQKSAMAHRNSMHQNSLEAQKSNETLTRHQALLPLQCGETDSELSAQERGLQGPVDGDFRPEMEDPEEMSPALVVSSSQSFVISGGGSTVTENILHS


biological target: feline Kokumi taste receptor (f-CaSR); test: feline Kokumi taste receptor assay (f-CaSR), agonistic activity of isolated samples; format: cell-based; settings: isolated samples from hydrolysate T648
Procedure: Aliquots of the isolated samples were tested for their agonistic activity in feline Kokumi taste receptor assays (f-CaSR).

Molecule | EC50 [mM] | f-CaSR activity (EC50)
CC(C)C(NC(=O)C(N)CC(=O)O)C(=O)NC(CCC(=O)O)C(=O)O (stereo not drawn) [BC 01, Asp-Val-Glu] (H-Asp-Val-Glu-OH; configuration not given here) | 6.32 | –
CC[C@H](C)[C@H](NC(=O)[C@@H](N)CC(=O)O)C(=O)NCC(=O)N[C@@H](COP(=O)(O)O)C(=O)N[C@@H](CCC(=O)O)C(=O)N[C@@H](COP(=O)(O)O)C(=O)N[C@H](C(=O)N[C@@H](CCC(=O)O)C(=O)N[C@@H](CC(=O)O)C(=O)N[C@@H](CCC(N)=O)C(=O)N[C@@H](C)C(=O)O)[C@@H](C)O [BC 10, Asp-Ile-Gly-pSer-Glu-pSer-Thr-Glu-Asp-Gln-Ala] (H-DIG[pS]E[pS]TEDQA-OH; N-terminus and C-terminus assumed) | 2 | –
CC[C@H](C)[C@H](N)C(=O)NCC(=O)N[C@@H](COP(=O)(O)O)C(=O)N[C@@H](CCC(=O)O)C(=O)N[C@@H](COP(=O)(O)O)C(=O)N[C@H](C(=O)N[C@@H](CCC(=O)O)C(=O)N[C@@H](CC(=O)O)C(=O)N[C@@H](CCC(N)=O)C(=O)O)[C@@H](C)O [BC 06, Ile-Gly-pSer-Glu-pSer-Thr-Glu-Asp-Gln] (H-IG[pS]E[pS]TEDQ-OH; N-terminus and C-terminus assumed) | 2 | –

Results, then the molecule that gave them:

EC50 [mM] | f-CaSR activity (EC50) | Molecule
3.16 | – | CC[C@H](C)[C@H](NC(=O)[C@@H](N)CCC(=O)O)C(=O)N[C@H](C(=O)N1CCC[C@H]1C(=O)N[C@@H](CC(N)=O)C(=O)N[C@@H](COP(=O)(O)O)C(=O)N[C@@H](C)C(=O)N[C@@H](CCC(=O)O)C(=O)N[C@@H](CCC(=O)O)C(=O)O)C(C)C [BC 09, Glu-Ile-Val-Pro-Asn-pSer-Ala-Glu-Glu] (H-EIVPN[pS]AEE-OH; N-terminus and C-terminus assumed)
– | Not active | 5-oxoproline-Lys-Glu-Pro [BC 02]
2 | – | CC[C@H](C)[C@H](N)C(=O)NCC(=O)N[C@@H](COP(=O)(O)O)C(=O)N[C@@H](CCC(=O)O)C(=O)N[C@@H](COP(=O)(O)O)C(=O)N[C@H](C(=O)N[C@@H](CCC(=O)O)C(=O)N[C@@H](CC(=O)O)C(=O)N[C@@H](CCC(N)=O)C(=O)N[C@@H](C)C(=O)O)[C@@H](C)O [BC 08, Ile-Gly-pSer-Glu-pSer-Thr-Glu-Asp-Gln-Ala] (H-IG[pS]E[pS]TEDQA-OH; N-terminus and C-terminus assumed)

biological target: feline CaSR (Felis catus, UniProt A0ABI7YY68); test: HEK T-Rex/natClytin-fCaSR luminescence assay, activation of feline CaSR; format: cell-based; settings: not given
Procedure: The cells used for the assays were HEK293 derived HEK T-Rex/natClytin-fCaSR cells. For the assays, the cells were plated on […] culture plates with a clear bottom for reading the luminescence in the wells. The setup of the assay for standard assays on the FlexStation was as follows. The wells containing the cells had 20 ul of calcium-free Tyrode's buffer at the beginning of the assay. 20 ul of each ligand at a specified concentration was injected on the cells and the response of the cells was measured for 90 sec at 1.94 sec intervals. The resulting curves were analyzed and reduced using the software provided by Molecular Devices, SoftMax Pro (version 5.4.1).
Each peptide was assayed on two separate occasions at least, with four repetitions of each concentration applied to the cells. In parallel, the same tests were run on a mock cell line with a mock vector, in order to confirm the specificity of any signals measured.
The data obtained from the FlexStation was used to trace dose-response curves for each ligand. These graphs were plotted using GraphPad Prism 7.03 software with the [Agonist] vs. response—Variable slope (four parameters) plot. The same formula was used to calculate the EC50 value with the associated Standard Error. Each plot contains the mean data points with an SEM calculated by the software for each data point.
One of the concerns during the planning of these assays was that it was possible that some of these peptides could bind the divalent calcium cation and cause a non-specific response from the receptor. In order to ensure that the interaction between the receptor and the peptides was measured and not with calcium, the peptides were synthesized in guaranteed calcium-free conditions. Similarly, all the assays were performed using calcium-free reagents.

Molecule | EC50 [mM]
CC(C)C(NC(=O)C(N)CC(=O)O)C(=O)NC(CC(=O)O)C(=O)O (stereo not drawn) [Asp-Val-Asp] (H-Asp-Val-Asp-OH; configuration not given here) | 3.41 ± 0.05
CC(C)C(NC(=O)C(N)CCC(=O)O)C(=O)NC(CCC(=O)O)C(=O)O (stereo not drawn) [Glu-Val-Glu] (H-Glu-Val-Glu-OH; configuration not given here) | 3.54 ± 0.05
CC(C)[C@H](NC(=O)CC[C@H](N)C(=O)O)C(=O)NCC(=O)O [γ-Glu-Val-Gly, reference compound] | 5.78 ± 2.41
CC(C)C(NC(=O)C(N)CC(=O)O)C(=O)NC(CCC(=O)O)C(=O)O (stereo not drawn) [BC 01, Asp-Val-Glu] (H-Asp-Val-Glu-OH; configuration not given here) | 3.3 ± 0.15
NC(CC(=O)O)C(=O)NC(CCC(=O)O)C(=O)NC(CCC(=O)O)C(=O)O (stereo not drawn) [Asp-Glu-Glu] (H-Asp-Glu-Glu-OH; configuration not given here) | 2.59 ± 0.09
NC(Cc1ccc(OP(=O)(O)O)cc1)C(=O)NC(CCC(=O)O)C(=O)NC(Cc1ccc(OP(=O)(O)O)cc1)C(=O)O (stereo not drawn) [pTyr-Glu-pTyr] (H-[pY]-Glu-[pY]-OH; configuration not given here) | 2.22 ± 0.22
CC(NC(=O)C(N)CC(=O)O)C(=O)NC(CCC(=O)O)C(=O)O (stereo not drawn) [Asp-Ala-Glu] (H-Asp-Ala-Glu-OH; configuration not given here) | 3.54 ± 0.05
NC(CO)C(=O)NC(CCC(=O)O)C(=O)NC(CO)C(=O)O (stereo not drawn) [Ser-Glu-Ser] (H-Ser-Glu-Ser-OH; configuration not given here) | 3.56 ± 0.11
CC(C)C(NC(=O)C(N)COP(=O)(O)O)C(=O)NC(CCC(=O)O)C(=O)O (stereo not drawn) [pSer-Val-Glu] (H-[pS]-Val-Glu-OH; configuration not given here) | 3.04 ± 0.03
CC(C)C(NC(=O)C(N)CS)C(=O)NC(CS)C(=O)O (stereo not drawn) [Cys-Val-Cys] (H-Cys-Val-Cys-OH; configuration not given here) | ~12.6
CC(C)C(NC(=O)C(N)CCC(=O)O)C(=O)NC(CC(=O)O)C(=O)O (stereo not drawn) [Glu-Val-Asp] | 3.32 ± 0.77
CC[C@H](C)[C@H](N)C(=O)NCC(=O)N[C@@H](COP(=O)(O)O)C(=O)N[C@@H](CCC(=O)O)C(=O)N[C@@H](COP(=O)(O)O)C(=O)N[C@H](C(=O)N[C@@H](CCC(=O)O)C(=O)N[C@@H](CC(=O)O)C(=O)N[C@@H](CCC(N)=O)C(=O)O)[C@@H](C)O [BC 06, Ile-Gly-pSer-Glu-pSer-Thr-Glu-Asp-Gln] (H-IG[pS]E[pS]TEDQ-OH; N-terminus and C-terminus assumed) | ~1.6
N[C@@H](CCC(=O)O)C(=O)O [Glu, glutamic acid, reference compound] | ~5.9

same assay, conditions: HEK T-Rex/natClytin-fCaSR cells, calcium-free Tyrode's buffer; ≈ values are model estimates without standard error; read-out: EC50 ± Std Error

Molecule | EC50 [mM]
CC(C)C(NC(=O)C(N)COP(=O)(O)O)C(=O)NC(COP(=O)(O)O)C(=O)O (stereo not drawn) [pSer-Val-pSer] (H-[pS]-Val-[pS]-OH; configuration not given here) | 2.63 ± 0.04
N[C@@H](CCC(=O)N[C@@H](CS)C(=O)NCC(=O)O)C(=O)O [GSH, reference compound] | 6.71 ± 0.57
[Ca+2].[Cl-].[Cl-] [CaC12, CaCl2, reference compound] | 1.6 ± 0.06

Other lines, results leading:

EC50 [mM] | Molecule
3.04 ± 0.21 | NC(COP(=O)(O)O)C(=O)NC(CCC(=O)O)C(=O)NC(COP(=O)(O)O)C(=O)O (stereo not drawn) [pSer-Glu-pSer] (H-[pS]-Glu-[pS]-OH; configuration not given here)
6.72 ± 0.13 | [Cl-].[Cl-].[Mg+2] [MgC12, reference compound]
~6.1 | N[C@@H](CC(=O)O)C(=O)O [Asp, aspartic acid, reference compound]
~6.9 | N[C@@H](CCC(=O)N[C@@H](Cc1ccc(O)cc1)C(=O)O)C(=O)O [γ-Glu-Tyr, reference compound]
~6.7 | CSCC[C@H](NC(=O)CC[C@H](N)C(=O)O)C(=O)O [γ-Glu-Met, reference compound]
1.98 ± 0.07 | CC(OP(=O)(O)O)C(N)C(=O)NC(CCC(=O)O)C(=O)NC(C(=O)O)C(C)OP(=O)(O)O (stereo not drawn) [pThr-Glu-pThr] (H-[pT]-Glu-[pT]-OH; configuration not given here)
~3.9 | CC(C)[C@H](NC(=O)CC[C@H](N)C(=O)O)C(=O)O [γ-Glu-Val, reference compound]
~7.8 | N[C@@H](CCC(=O)N[C@@H](Cc1ccccc1)C(=O)O)C(=O)O [γ-Glu-Phe, reference compound]

Biological target: T1, feline calcium-sensing receptor (CaSR)
Test: cell-based or functional assay
Settings: not given

f-CaSR activity (EC50) [mM] | Molecule
6.32 | DVE [Asp-Val-Glu]

biological target: feline calcium-sensing receptor (CaSR) (feline (cat)); test: cell-based or functional assay; settings: not given

f-CaSR activity (EC50) [mM] | Molecule
2 | IG[pS]E[pS]TEDQ
2 | IG[pS]E[pS]TEDQA
2 | DIG[pS]E[pS]TEDQA
3.16 | EIVPN[pS]AEE
